Test results taken from publication PMC6470838 (Pharmaceutics, 2019).
Where two headings read alike, the source gives them in different places. Blank lines part the entries; values can stand above or below the compound they belong to.

Assays:
prothrombin time [1] = assay: Prothrombin time after oral administration of rivaroxaban in rats; format: in vivo, Sprague Dawley rats; details: for AUEC, area under the percentage increase of prothrombin time vs. time curve / Emax, maximum percentage increase of prothrombin time: rivaroxaban 2 mg/kg oral, alone or with verapamil 25 mg/kg or diltiazem 30 mg/kg, mean (RSD %), n = 5
Method: (§1) All drugs were suspended in corn oil and administered orally.
(§2) After centrifugation (17,000 rpm, 10 min), plasma samples were stored at –70 °C until analysis, using 30 μL of plasma.
Prothrombin time was measured using a blood coagulation analyzer (ACL 7000, Instrumentation Laboratory, Bedford, MA, USA) at Korea Conformity Laboratories (Incheon, Korea) using PT recombiPlasTin 2G reagent (Instrumentation Laboratory, Bedford, MA, USA).
The time courses of prothrombin time were used to determine pharmacodynamic parameters: peak effect observed (Emax,observed) was directly obtained from the individual time courses; and the area under the effect-time curve (AUECt) was calculated by the trapezoidal rule.

prothrombin time [2] = system: prothrombin time
in vivo = details: male, Sprague Dawley, rat, plasma, oral, 2 mg/kg
prothrombin time [3] = details: humans; cited from earlier work
[4] = Rivaroxaban plasma pharmacokinetics after oral administration in rats (model independent analysis); format: in vivo, Sprague Dawley rats
Method: The animals used in this study were 15 Sprague Dawley rats (8-week-old males, 280–300 g). […] The study protocol was approved by the Institutional Animal Care and Use Committees (IACUC) at Chung-Ang University. All animals used in this study were cared for in accordance with the principles outlined in the National Institutes of Health Guide for the Care and Use of Laboratory Animals.
as §1, §2
Acetonitrile (90 μL) including flufenamic acid (10 ng/mL) was added to the plasma samples (30 μL). The mixture was vigorously vortexed for 10 s and centrifuged at 17,000 rpm for 10 min. A 5-μL sample of the supernatant was injected onto the LC-MS/MS.
The compounds were purified on a reversed-phase column (Atlantis® T3, 50 × 2.1 mm internal diameter, 3 µm particle size; Waters) at 30 °C.

[5] = ketoconazole 400 mg, qd; cited from earlier work
[6] = compared with rivaroxaban 2 mg/kg alone, verapamil 25 mg/kg oral, rats
[7] = male, Sprague Dawley, rat, plasma, po, 2 mg/kg
[8] = PK/PD model parameter of rivaroxaban, presence or absence of verapamil, mean (RSD %), n = 5
[9] = diltiazem 30 mg/kg oral, rats, vs rivaroxaban alone

SMILES: COc1ccc(CCN(C)CCCC(C#N)(c2ccc(OC)c(OC)c2)C(C)C)cc1OC (stereo not shown) [Verapamil]
Increase of AUEC of prothrombin time by the co-administered drug (prothrombin time [1]; [6]): 2.6 fold
Increase of Emax of prothrombin time by the co-administered drug (prothrombin time [1]; [6]): 2.5 fold
Effect of the co-administered drug on the slope (percentage increase of prothrombin time vs. rivaroxaban concentration) (prothrombin time [2]; verapamil 25 mg/kg, rats): no difference

Vd/F (in vivo): 0.96 L/kg
k el (in vivo): 0.000236 s⁻¹
AUC(0-inf) [4, 7]: 2.7 µg·h/mL
CL/F [4, 7]: 0.774 L/h/kg
Cmax [4, 7]: 0.373 µg/mL
Tmax [4, 7]: 2.8 h
AUCinf ([4]; rivaroxaban in plasma, rivaroxaban 2 mg/kg oral, alone or with verapamil 25 mg/kg or diltiazem 30 mg/kg, mean (RSD %), n = 5): 2.7 µg·h/mL
f, absorption fraction (prothrombin time [2]; [8]): 0.61 (30) fraction
ka, absorption rate constant (prothrombin time [2]; [8]): 0.63 (22) h^−1
ttransit, transit time (prothrombin time [2]; [8]): 6.37 (21) h
ttransit, transit time (prothrombin time [2]; PK/PD model parameter of rivaroxaban, presence or absence of verapamil, mean (RSD %), n = 5, listed as rivaroxaban): 6.4 h
Part of the dose initially absorbed, contributing to the first peak (prothrombin time [2]; rivaroxaban alone, model estimate): 40%
SMILES: O=C(NC[C@H]1CN(c2ccc(N3CCOCC3=O)cc2)C(=O)O1)c1ccc(Cl)s1 [Rivaroxaban]
Slope of relative prothrombin time vs. rivaroxaban plasma concentration (prothrombin time [3]): approximately 0.0029
AUEC, area under the percentage increase of prothrombin time vs. time curve (prothrombin time [1]): 188 (9) % ∙h
Emax, maximum percentage increase of prothrombin time (prothrombin time [1]): 30 (11) %
AUEC, area under the percentage increase of prothrombin time vs. time curve (prothrombin time [1]; listed as rivaroxaban): 188 % ∙h
Emax, maximum percentage increase of prothrombin time (prothrombin time [1]; listed as rivaroxaban): 30%
Slope, percentage increase of prothrombin time vs. rivaroxaban plasma concentration (prothrombin time [2]; [8]): 0.08 (44) %·mL/ng
Slope of relative prothrombin time (ratio of the baseline level) vs. rivaroxaban plasma concentration (prothrombin time [2]; rats, prothrombin times rescaled to ratio of baseline): 0.00054

SMILES: CC(=O)N1CCN(c2ccc(OCC3COC(Cn4ccnc4)(c4ccc(Cl)cc4Cl)O3)cc2)CC1 (stereo not shown) [ketoconazole]
Effect of the concomitant drug on the systemic exposure of rivaroxaban [5]: significantly increased

Effect of the co-administered drug on clearance and AUCinf of rivaroxaban [4, 9]: no statistical differences
SMILES: COc1ccc([C@@H]2Sc3ccccc3N(CCN(C)C)C(=O)[C@@H]2OC(C)=O)cc1 [diltiazem]
Effect of the co-administered drug on Emax and AUEC of prothrombin time (prothrombin time [1]; [9]): did not represent any significant changes
